Assay results reported in PMC12663368 (Nature Communications, 2025).

System: Mpro-WT and Mpro-Δ23G 1:1 mixture
Conditions: hamster, in vivo

CC(C)(C)[C@H](NC(=O)C(F)(F)F)C(=O)N1C[C@H]2[C@@H]([C@H]1C(=O)N[C@H](C#N)C[C@@H]1CCNC1=O)C2(C)C [nirmatrelvir]
Mpro-WT dominance: > 97%
